From ChEMBL document CHEMBL4038320 (J Med Chem, 2017)

Assays:
[1] = target: Rho-associated protein kinase 2 (Homo sapiens, UniProt O75116); test: Inhibition of recombinant human N-terminal GST-tagged ROCK2 catalytic domain (1 to 553 residues) expressed in baculovirus expression system using STK 2-biotin as substrate measured after 60 mins by HTRF/TR-FRET assay
[2] = target: CYP3A4 (Homo sapiens, UniProt P08684); test: Inhibition of CYP3A4 (unknown origin) at 10 uM; assay type: ADME
[3] = target: Protein kinase C alpha type (Homo sapiens, UniProt P17252); test: Inhibition of human PKCalpha active using MBP as substrate after 60 mins in presence of [gamma-32]ATP by scintillation counting

Sequence of CYP3A4 (P08684 whole entry): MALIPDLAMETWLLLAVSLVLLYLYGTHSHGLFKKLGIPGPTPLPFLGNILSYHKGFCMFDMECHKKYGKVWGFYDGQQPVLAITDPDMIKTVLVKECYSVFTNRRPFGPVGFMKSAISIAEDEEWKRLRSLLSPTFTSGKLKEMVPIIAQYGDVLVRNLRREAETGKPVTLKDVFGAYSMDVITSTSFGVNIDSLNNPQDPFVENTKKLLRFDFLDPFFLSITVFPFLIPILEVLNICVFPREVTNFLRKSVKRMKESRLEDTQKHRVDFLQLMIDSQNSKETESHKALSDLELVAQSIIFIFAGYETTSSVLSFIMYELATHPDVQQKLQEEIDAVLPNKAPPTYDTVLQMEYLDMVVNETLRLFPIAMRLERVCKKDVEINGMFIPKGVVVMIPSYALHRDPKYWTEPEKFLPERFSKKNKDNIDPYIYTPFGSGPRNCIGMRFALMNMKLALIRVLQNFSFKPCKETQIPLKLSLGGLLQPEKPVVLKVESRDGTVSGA
Sequence of Rho-associated protein kinase 2 (O75116 whole entry, the tested form may be a part): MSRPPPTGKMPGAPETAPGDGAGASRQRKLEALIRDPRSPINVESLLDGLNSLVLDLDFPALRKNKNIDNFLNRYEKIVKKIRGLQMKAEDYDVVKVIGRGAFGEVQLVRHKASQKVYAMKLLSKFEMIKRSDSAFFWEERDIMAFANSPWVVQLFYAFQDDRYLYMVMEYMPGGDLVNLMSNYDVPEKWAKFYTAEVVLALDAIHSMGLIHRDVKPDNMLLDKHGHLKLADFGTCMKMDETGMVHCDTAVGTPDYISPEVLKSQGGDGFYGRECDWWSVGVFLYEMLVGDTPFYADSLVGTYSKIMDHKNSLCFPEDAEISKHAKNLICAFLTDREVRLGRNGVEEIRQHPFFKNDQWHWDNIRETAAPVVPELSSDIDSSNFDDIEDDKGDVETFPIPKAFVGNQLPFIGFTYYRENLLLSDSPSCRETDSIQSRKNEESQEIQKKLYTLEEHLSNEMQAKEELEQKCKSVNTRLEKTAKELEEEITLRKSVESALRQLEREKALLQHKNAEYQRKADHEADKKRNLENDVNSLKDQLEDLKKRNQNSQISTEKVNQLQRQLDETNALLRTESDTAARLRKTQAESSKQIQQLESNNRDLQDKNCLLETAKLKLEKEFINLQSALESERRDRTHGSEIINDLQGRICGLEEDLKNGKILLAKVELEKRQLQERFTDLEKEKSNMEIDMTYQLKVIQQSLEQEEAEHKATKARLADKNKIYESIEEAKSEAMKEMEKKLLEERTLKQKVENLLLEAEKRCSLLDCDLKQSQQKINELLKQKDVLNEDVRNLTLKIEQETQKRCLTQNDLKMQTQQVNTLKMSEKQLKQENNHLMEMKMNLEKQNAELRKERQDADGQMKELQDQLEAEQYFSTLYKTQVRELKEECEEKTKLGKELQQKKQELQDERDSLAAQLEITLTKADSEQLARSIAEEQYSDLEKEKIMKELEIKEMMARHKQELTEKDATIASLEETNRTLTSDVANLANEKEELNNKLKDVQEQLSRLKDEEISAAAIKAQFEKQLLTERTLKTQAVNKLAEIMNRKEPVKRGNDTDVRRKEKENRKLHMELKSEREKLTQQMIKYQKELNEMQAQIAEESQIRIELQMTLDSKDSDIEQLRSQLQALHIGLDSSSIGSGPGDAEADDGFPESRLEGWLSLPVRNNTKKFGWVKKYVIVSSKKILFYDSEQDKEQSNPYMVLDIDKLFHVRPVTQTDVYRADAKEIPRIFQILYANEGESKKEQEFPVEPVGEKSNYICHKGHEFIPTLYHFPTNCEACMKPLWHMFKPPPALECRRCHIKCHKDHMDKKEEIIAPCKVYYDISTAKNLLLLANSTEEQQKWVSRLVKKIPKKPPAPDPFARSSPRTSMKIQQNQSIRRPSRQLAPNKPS

SMILES	IC50 [1]	inhibition at 10 µM [2]	IC50 [3]
Clc1ccc(NCc2nc(-c3ccncc3)n[nH]2)cc1	94 nM	97%	> 10 µM
COc1cccc(NCC(=O)N/N=C2\CCCc3cnccc32)c1	390 nM	–	> 10 µM
O=C(NCc1ccccc1)c1cccc(NCc2csc(-c3ccncc3)n2)c1	120 nM	87%	> 10 µM
O=C(CNc1ccc(Cl)cc1)N/N=C/c1ccncc1	540 nM	–	–
O=C(NCc1ccccc1)c1cccc(NCc2nc(-c3ccncc3)cs2)c1	22 nM	92%	> 10 µM
Clc1ccc(CSc2nc(-c3ccncc3)n[nH]2)cc1	1900 nM	97%	–
CCOc1cccc(NCC(=O)N/N=C2\CCCc3cnccc32)c1	5700 nM	–	> 10 µM
CC(=O)Nc1cc(-c2nnc(CNc3cccc(C(=O)NCc4ccccc4C(F)(F)F)c3)n2C)ccn1	> 10000 nM	56%	–
O=C(Cc1ccccc1)Nc1cc(NCc2nc(-c3ccncc3)n[nH]2)ccc1Cl	18 nM	90%	1.7 µM
Clc1cccc(OCc2n[nH]c(-c3ccncc3)n2)c1	1700 nM	86%	–
O=C(Cc1cccc(NCc2nc(-c3ccncc3)n[nH]2)c1)NCc1ccccc1	480 nM	92%	> 10 µM
O=C(NCc1ccccc1)c1cccc(NCc2nc(-c3ccncc3)no2)c1	350 nM	86%	> 10 µM
COc1cccc(NCC(=O)N/N=C/c2ccncc2)c1	62 nM	–	–
O=C(NCc1ccccc1Cl)c1cccc(NCc2nnc(-c3ccncc3)[nH]2)c1	50 nM	97%	1.1 µM
Cn1c(CNc2cccc(C(=O)NCc3c(F)cccc3F)c2)nnc1-c1ccnc(NCCCc2ccccc2)c1	> 10000 nM	64%	2.5 µM
c1ccc(Oc2cccc(NCc3nc(-c4ccncc4)n[nH]3)c2)cc1	> 10000 nM	100%	> 10 µM
NC(=O)OCc1cnccc1-c1n[nH]c(CNc2cccc(C(=O)NCc3ccccc3)c2)n1	2300 nM	63%	–
CCCn1c(CNc2cccc(C(=O)NCc3ccccc3C(F)(F)F)c2)nnc1-c1ccncn1	140 nM	81%	1.2 µM
O=C(Nc1ccccc1)c1cccc(NCc2nc(-c3ccncc3)n[nH]2)c1	31 nM	94%	0.68 µM
c1ccc(CCOc2cccc(NCc3nc(-c4ccncc4)n[nH]3)c2)cc1	2700 nM	96%	> 10 µM
O=C(NCc1ccccc1)c1cccc(NCc2cc(-c3ccncc3)no2)c1	130 nM	92%	8.3 µM
COc1cccc(CNC(=O)c2cccc(NCc3nnc(-c4ccncc4)[nH]3)c2)c1	20 nM	95%	3.2 µM

SMILES	IC50 [1]	inhibition at 10 µM [2]	IC50 [3]
O=C(NCc1ccccc1)c1cccc(NCc2c[nH]c(-c3ccncc3)n2)c1	160 nM	93%	–
O=C(CNc1cccc(Oc2ccccc2)c1)N/N=C1\CCCc2cnccc21	6200 nM	–	> 10 µM
O=C(CNc1cccc(C(=O)N2CCOCC2)c1)N/N=C1\CCCc2cnccc21	> 10000 nM	–	–
O=S(=O)(NCc1ccccc1)c1cccc(NCc2nc(-c3ccncc3)n[nH]2)c1	98 nM	83%	–
COc1ccc(CNC(=O)c2cccc(NCc3nnc(-c4ccncc4)[nH]3)c2)cc1	27 nM	91%	7.1 µM
O=C(NCc1ccccc1)Nc1cccc(NCc2nc(-c3ccncc3)n[nH]2)c1	30 nM	92%	2.7 µM
Cn1c(CNc2cccc(C(=O)NCc3c(F)cccc3F)c2)nnc1-c1ccnc(NCCc2ccccc2)c1	> 10000 nM	69%	–
Clc1ccc(NCCc2nc(-c3ccncc3)n[nH]2)cc1	900 nM	93%	–
O=S(=O)(Cc1ccccc1)c1cccc(NCc2nc(-c3ccncc3)n[nH]2)c1	1100 nM	86%	–
Clc1ccccc1NCc1nc(-c2ccncc2)n[nH]1	1700 nM	100%	> 10 µM
CC(=O)Nc1cccc(NCc2nc(-c3ccncc3)n[nH]2)c1	70 nM	77%	–
CNc1cc(-c2nnc(CNc3cccc(C(=O)NCc4c(F)cccc4F)c3)n2C)ccn1	7400 nM	29%	–
O=C(NCc1ccccc1C(F)(F)F)c1cccc(NCc2nnc(-c3ccncc3)n2CCO)c1	320 nM	79%	7.6 µM
O=C(CNc1cccc(Cl)c1)N/N=C/c1ccncc1	300 nM	–	–
OCCc1cnccc1-c1n[nH]c(CNc2ccc(Cl)cc2)n1	> 10000 nM	100%	–
O=C(NCc1ccccc1)c1cccc(NCc2cc(-c3ccncc3)c[nH]2)c1	52 nM	100%	> 10 µM
Cn1c(CNc2cccc(C(=O)NCc3ccccc3Cl)c2)nnc1-c1ccncc1	1600 nM	54%	8.7 µM
O=C(NCc1ccccc1)c1cccc(NCc2nnc(-c3ccncc3)n2Cc2ccccc2)c1	3200 nM	87%	–
COCCn1c(CNc2cccc(C(=O)NCc3ccccc3)c2)nnc1-c1ccncc1	320 nM	57%	7.4 µM
COc1ccccc1NCC(=O)N/N=C/c1ccncc1	7400 nM	–	–
O=C(NCc1ccccc1)c1cccc(NCc2[nH]nc(-c3ccncc3)c2-c2ccccc2)c1	170 nM	87%	–
c1ccc(CNCc2nc(-c3ccncc3)n[nH]2)cc1	5100 nM	74%	–

Further lines, results first:

IC50 [1]	inhibition at 10 µM [2]	IC50 [3]	SMILES
160 nM	25%	> 10 µM	NS(=O)(=O)c1cccc(NCc2nc(-c3ccncc3)n[nH]2)c1
74 nM	80%	8.3 µM	CC(=O)Nc1cc(NCc2nc(-c3ccncc3)n[nH]2)ccc1Cl
340 nM	95%	–	O=C(NCc1ccccc1)c1cccc(NCc2ccn(-c3ccncc3)c2)c1
60 nM	99%	7.2 µM	O=C(NCc1ccccc1)c1cccc(NCc2cc(-c3ccncc3)n[nH]2)c1
> 10000 nM	–	> 10 µM	O=C(CNc1cccc(OCc2ccccc2)c1)N/N=C1\CCCc2cnccc21
7.3 nM	100%	3.6 µM	O=C(NCc1ccccc1)c1cccc(NCc2nc(-c3ccncc3)c[nH]2)c1
630 nM	94%	> 10 µM	c1ccc(NCc2nc(-c3ccncc3)n[nH]2)cc1
720 nM	92%	> 10 µM	COc1cccc(NCc2nc(-c3ccncc3)n[nH]2)c1
1900 nM	24%	> 10 µM	Cn1c(CNc2cccc(C(=O)NCc3c(F)cccc3F)c2)nnc1-c1ccncn1
1200 nM	100%	> 10 µM	c1ccc(CSc2cccc(NCc3nc(-c4ccncc4)n[nH]3)c2)cc1
270 nM	96%	–	Clc1ccc(CNc2nc(-c3ccncc3)n[nH]2)cc1
7100 nM	47%	> 10 µM	Cc1cc(-c2n[nH]c(CNc3ccc(Cl)cc3)n2)ccn1
590 nM	100%	–	Clc1ccc(SCc2nc(-c3ccncc3)n[nH]2)cc1
58 nM	–	> 10 µM	O=C(CNc1cccc(C(=O)NCc2ccccc2)c1)N/N=C1\CCCc2cnccc21
360 nM	20%	> 10 µM	NS(=O)(=O)c1ccc(NCc2nc(-c3ccncc3)n[nH]2)cc1
540 nM	100%	> 10 µM	O=C(NCc1ccccc1)c1cccc(NCc2nc(-c3ccncc3CO)n[nH]2)c1

IC50 [1]	inhibition at 10 µM [2]	IC50 [3]	SMILES
1800 nM	–	–	O=C(CNc1ccccc1)N/N=C1\CCCc2cnccc21
18 nM	84%	2.5 µM	O=C(NCc1ccccc1)c1cccc(NCc2cc(-c3ccncc3)on2)c1
190 nM	49%	–	O=C(NCc1c(F)cccc1F)c1cccc(NCc2nnc3n2CCOc2cnccc2-3)c1
85 nM	95%	3.3 µM	COc1ccccc1CNC(=O)c1cccc(NCc2nnc(-c3ccncc3)[nH]2)c1
2600 nM	–	–	O=C(CNc1ccccc1Cl)N/N=C/c1ccncc1
320 nM	43%	> 10 µM	O=C(NCc1ccccc1)c1cccc(NCc2nnc(-c3ccncc3)o2)c1
280 nM	95%	> 10 µM	COc1ccc(NCc2nc(-c3ccncc3)n[nH]2)cc1
100 nM	94%	> 10 µM	O=C(NCCCc1ccccc1)c1cccc(NCc2nc(-c3ccncc3)n[nH]2)c1
47 nM	95%	> 10 µM	O=C(NCCc1ccccc1)c1cccc(NCc2nc(-c3ccncc3)n[nH]2)c1
> 10000 nM	47%	> 10 µM	Cn1c(CNc2cccc(C(=O)NCc3c(F)cccc3F)c2)nnc1-c1ccnc(NCc2ccccc2)c1
1800 nM	93%	> 10 µM	COc1ccccc1NCc1nc(-c2ccncc2)n[nH]1
3700 nM	–	–	COc1ccc(NCC(=O)N/N=C/c2ccncc2)cc1
1400 nM	97%	> 10 µM	c1ccc(COc2cccc(NCc3nc(-c4ccncc4)n[nH]3)c2)cc1
640 nM	–	–	O=C(CNc1ccccc1)N/N=C/c1ccncc1
> 10000 nM	27%	–	O=C(Nc1nc(-c2ccncc2)n[nH]1)c1ccc(Cl)cc1
